In patent US20240207414A1, “DISULFIDE-BASED PRODRUG COMPOUND” (Ludwig-Maximilians-Universitat Munchen, priority 2021, published 2024):

Key:
[1] = target: T1, GR/GSH (Homo sapiens, UniProt P00390); test: Enzymatic activation assay: GR/GSH; format: biochemical; details: NADPH/GR/GSH
T1 sequence (P00390 44-522): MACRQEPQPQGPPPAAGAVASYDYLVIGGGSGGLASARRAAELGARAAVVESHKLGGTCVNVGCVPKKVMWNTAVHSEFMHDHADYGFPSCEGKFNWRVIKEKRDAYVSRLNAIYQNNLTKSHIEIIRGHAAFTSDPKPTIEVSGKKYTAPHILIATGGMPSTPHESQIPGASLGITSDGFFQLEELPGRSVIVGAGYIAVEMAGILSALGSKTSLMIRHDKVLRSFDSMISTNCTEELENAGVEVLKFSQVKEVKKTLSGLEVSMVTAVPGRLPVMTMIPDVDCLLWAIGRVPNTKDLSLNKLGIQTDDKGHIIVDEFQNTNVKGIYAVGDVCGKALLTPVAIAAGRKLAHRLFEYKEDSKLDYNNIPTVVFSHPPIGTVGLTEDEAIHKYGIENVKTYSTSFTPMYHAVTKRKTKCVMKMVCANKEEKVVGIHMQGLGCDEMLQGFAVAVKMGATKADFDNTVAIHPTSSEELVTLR
Text: (§1) This assay (see FIG. 2) examined the resistance of disulfide-based reduction-triggered compounds to the major cellular enzymatic systems that maintain redox homeostasis and are capable of reducing disulfides, evaluated in a cell-free assay, to see if these compounds can be useful for selective enzyme-triggered release.
(§2) Assay conditions: A black 96-well plate with black bottom was charged with solutions of fluorophore-releasing reduction-triggered probes that are compounds of the invention (P1, P2) or that are not compounds of the invention and reveal the performance of prior art systems (X19) (50 μL; 40 μM in aq. TE buffer (pH 7.4) and 4 μL DMSO). Separately, master mixes (30 μL in aq. TE buffer (pH 7.4)) containing mixtures of the proteins human recombinant thioredoxin 1 (Trx1, 0.166-16.66 μM) or thioredoxin 2 (Trx2, 3.3 μM), or human recombinant glutaredoxin 1 (“Grx1”, 3.3 μM) or glutaredoxin 2 (Grx2, 3.3 μM) and/or oxidoreductases human recombinant thioredoxin reductase 1 (TrxR1, 0.07 μM), the thioredoxin reductase Secys498Cys mutant (TrxR1-U498C, 0.07 μM), thioredoxin reductase 2 (TrxR2, 0.07 μM) or human recombinant glutathione reductase (GR, 0.07 μM), and/or GSH (3.3 μM) were prepared. Note that TrxR1 (U498C) has decreased reducing power compared to TrxR1 due to the mutation of the key vicinal selenothiol/thiol into a vicinal dithiol, but it still reduces Trx1. […]
(§3) Data Representation: (F(t)-F^NADPH(t)) is the fluorescence intensity of the test solution at time t, from which is subtracted a background fluorescence level also at time t from a solution with NADPH (which itself is fluorescent, and is present in 10-fold higher concentration than the probe) and with the same protein mixture but without the probe. F^max(t) is the maximum possible fluorescence intensity value at time t, determined by incubation with TCEP (100 μM)) similarly as for the chemical reductant assay. (F(t)−F^NADPH(t))/F^max(t) thus gives the timecourse of fluorescence signal, as a fraction of the maximum possible fluorescence signal. […]

[2] = Chemical reductant assay: GSH challenge (cell-free); format: physicochemical; details: aq. TE buffer pH 7.4, 37° C., 6 h, GSH 0.01-10 mM
Text: This assay (see FIG. 1) examined the stability of disulfide-based reduction-triggered compounds of the invention when exposed to monothiol reductants, primarily the major physiological cellular monothiol GSH, and dithiol reductants like the disulfide reductant dithiothreitol (DTT), as evaluated in a cell-free assay, to determine whether these compounds can be useful for selective release.
Assay Conditions: A black 96-well plate with black bottom was charged with solutions of fluorophore-releasing reduction-triggered probes that are compounds of the invention (P1, P2, P3, P4 and P5) or that are not compounds of the invention and reveal the performance of prior art systems (X19) (80 μL; 25 μM in aq. TE buffer (pH 7.4) and 1.25% vol DMSO). Solutions of challenge species chosen from the monothiol glutathione (GSH, 0.1-50 mM) and the dithiol reductant dithiothreitol (DTT, 0.1-50 mM) or phosphine reductant tris-(2-carboxyethyl) phosphine (TCEP); (20 μL; 1 mM in aq. TE buffer (pH 7.4) were added and the reaction mixtures were incubated at 37° C. for 6 h while measuring fluorescence intensity over time [F(t)] using a BMG Labtech FLUOstar Omega platereader (λexc=355 nm, Δem=530 nm for PQ-OH-releasing probes X19, P1 and P2; Δexc=485 nm, Δem=530 nm for MF-OH-releasing probes P3 and P4.
Data Representation: F^max is the maximum possible fluorescence increase corresponding to complete reduction-triggered cargo release, i.e. the fluorescence intensity increase from time zero to signal plateau under TCEP incubation PQ-OH-releasing probes. F(t)/F^max(t) thus gives the timecourse measurements of fluorescence intensity, as a fraction of the maximum possible fluorescence signal. F^sat is the endpoint fluorescence intensity increase for each condition, ie. F^sat=(F(6 h)). F^sat/F^max thus gives the assay endpoint fluorescence intensity increase, as a fraction of the maximum possible fluorescence signal. In the GSH timecourse measurements shown in FIG. 1, all datasets annotated with concentrations only (0.01-10 mM) refer to GSH challenges, while datasets for TCEP positive control (100 μM) and no-reductant control (blank) are shown for comparison. The dose-response plots show F^sat/F^max for the different ratios between probe and GSH or probe and DTT concentrations, with a logarithmic horizontal scale.

[3] = target: T2, TrxR1(U498C) (Homo sapiens, UniProt Q16881); test: Enzymatic activation assay: TrxR1 Secys498Cys mutant; format: biochemical; details: NADPH; for cargo release / processing by TrxR1(U498C)/Trx1: TrxR1(U498C) with Trx1
T2 sequence (Q16881 with tags, fused parts or gaps isoform Q16881-5): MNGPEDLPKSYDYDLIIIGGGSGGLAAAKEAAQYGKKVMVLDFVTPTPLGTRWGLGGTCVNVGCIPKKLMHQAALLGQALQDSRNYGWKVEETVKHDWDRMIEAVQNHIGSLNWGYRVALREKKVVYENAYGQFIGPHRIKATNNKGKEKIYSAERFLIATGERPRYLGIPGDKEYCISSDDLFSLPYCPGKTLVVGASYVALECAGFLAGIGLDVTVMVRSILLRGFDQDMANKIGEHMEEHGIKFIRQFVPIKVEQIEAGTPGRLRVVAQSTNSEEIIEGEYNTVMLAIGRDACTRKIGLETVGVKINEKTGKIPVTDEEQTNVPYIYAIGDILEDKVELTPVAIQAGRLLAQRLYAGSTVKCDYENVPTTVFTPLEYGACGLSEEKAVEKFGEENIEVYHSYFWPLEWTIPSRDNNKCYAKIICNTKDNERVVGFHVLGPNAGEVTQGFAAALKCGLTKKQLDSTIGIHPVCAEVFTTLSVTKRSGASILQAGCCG
Text: as §1, §2, §3

Compound	cargo release / processing by GR/GSH mixture [1]	cargo release (fluorescence) when challenged with monothiol reductant GSH [2]	cargo release / degradation by TrxR1(U498C) ([3]; TrxR1(U498C))	cargo release / processing by TrxR1(U498C)/Trx1 [3]
4-chloro-2-(6-chloro-4-oxo-3,4-dihydroquinazolin-2-yl)phenyl methyl(2-((2-(methyl amino)ethyl)disulfaneyl)ethyl)carbamate [Compound X19, reference compound]	rapidly degraded	already unstable to the monothiol GSH	rapidly degraded	
O=C(Oc1ccc(Cl)cc1-c1nc2ccc(Cl)cc2c(=O)[nH]1)N1CCC[C@@H]2CSSC[C@H]21 (racemic) [Compound P1, 4-chloro-2-(6-chloro-4-oxo-3,4-dihydroquinazolin-2-yl)phenyl-(trans)-hexahydro-[1,2]dithiino[4,5-b]pyridine-1(2H)-carboxylate]	resist	do not release cargo		not processed
O=C(Oc1ccc(Cl)cc1-c1nc2ccc(Cl)cc2c(=O)[nH]1)N1CCC[C@@H]2CSSC[C@@H]21 (racemic) [Compound P2, 4-chloro-2-(6-chloro-4-oxo-3,4-dihydroquinazolin-2-yl)phenyl-(cis)-hexahydro-[1,2]dithiino[4,5-b]pyridine-1(2H)-carboxylate]	resist	do not release cargo		not processed
